{
  "source": "patent US8252801B1",
  "about": "“Treatment of schizophrenia and related disorders” (Abbott Laboratories, priority 2009, dated 2012)",
  "key": {"[1]": {"conditions": "cited from earlier work"}, "Male DBA/2J mice [2]": {"test_system": "Male DBA/2J mice", "test": "Prepulse inhibition (PPI) model, Compound A alone", "type": "in vivo, mouse", "conditions": "Compound A alone at 0.01, 0.1 and 1.0 mg/kg i.p., 30 min before testing; FIG. 1", "description": "Dysfunctions of sensory gating and information processing have been putatively associated with clinical features such as perpetual aberrations, hallucinations and distraction and been considered as potential precursors of sensory overload, cognitive fragmentation and disorganization. Among the physiological measures, one approach has involved the startle reflex with the prepulse inhibition (PPI) paradigm. […] PPI refers to a reduction in the acoustic startle reflex to a loud noise when the loud noise is preceded by a weak auditory stimulus. At short lead intervals, this has the effect of markedly reducing or gating the amplitude of the startle response and increasing its latency. Disruption of PPI occurs with agonists of dopamine and serotonin, and with glutamate/N-methyl D aspartate (NMDA) receptor antagonists, or can be induced by genetic (e.g., DBA2 mouse strain) and experimental manipulations (e.g., rearing rats in isolation, neurotoxic lesions, or other methods). […] (Olivier B., et al., Psychopharmacology (2001) vol. 156:284-290; Ouagazzal A-M., Psychopharmacology (2001) vol. 156:273-283; Simosky J. K., Psychopharmacology (2003) vol. 165:386-396). […]\nAnimals: Male DBA/2J mice (Jackson Labs AX9 facility, Bar Harbor, Me., USA) at age 6-8 weeks old were used. […] Experimental Procedure: Startle response and PPI were measured using startle chambers from Hamilton Kinder (Poway, Calif., USA). […]"}, "Male DBA/2J mice [3]": {"test_system": "Male DBA/2J mice", "test": "Prepulse inhibition (PPI) model, Compound A on a subefficacious dose of risperidone", "type": "in vivo, mouse", "conditions": "FIG. 2", "description": "Animals: Male DBA/2J mice (Jackson Labs AX9 facility, Bar Harbor, Me., USA) at age 6-8 weeks old were used. They were housed under standard facility conditions in groups of eight on a 12 h light/dark cycle (lights on at 0600 h) with ad libitum access to food and water. Chemicals: 2-{4′-[(3aR,6aR)-5-Methylhexahydropyrrolo[3,4-b]pyrrol-1(2H)-yl]-1,1′-biphenyl-4-yl}pyridazin-3(2H)-one was prepared at Abbott Laboratories; risperidone (3-[2-[4-(6-fluoro-1,2-benzisoxazol-3-yl)-1-piperidinyl]ethyl]-6,7,8,9-tetrahydro-2-methyl-4H-pyridol[1,2-a]pyrimidin-4-one, MW 410.5) was obtained from ICN Biomedicals Inc. (Aurora, Ohio, USA). […] Experimental Procedure: Startle response and PPI were measured using startle chambers from Hamilton Kinder (Poway, Calif., USA). […] In the startle alone trials, the amount of PPI was calculated as a percentage score for each acoustic prepulse trial type using (typically) the formula: […]. Statistics: Data were analyzed using a one-way ANOVA. All post hoc significance was determined using Dunnett's multiple comparison test (p<0.05 was regarded as significance). […]\nStatistics: Data were analyzed using a one-way ANOVA. All post hoc significance was determined using Dunnett's multiple comparison test (p<0.05 was regarded as significance)."}, "Male Sprague Dawley rats": {"test_system": "Male Sprague Dawley rats", "test": "Catalepsy (bar test), Compound A in combination with risperidone", "type": "in vivo, rat", "conditions": "Compound A 0.1 or 1.0 mg/kg i.p. 10 min prior to risperidone 2.5 mg/kg i.p.; total catalepsy over 60-240 min; FIG. 3", "description": "Animals: Male Sprague Dawley rats (CRL: CD (SD), Charles River Laboratories, Omaha, Nebr., USA) weighing 300-325 g were used for the experiment. They were housed under standard conditions in groups of 4 rats on a 12 h light/dark cycle (lights on at 0600 h) with ad libitum access to food and water. Preparation of Compounds: 2-{4′-[(3aR,6aR)-5-Methylhexahydropyrrolo[3,4-b]pyrrol-1(2H)-yl]-1,1′-biphenyl-4-yl}pyridazin-3(2H)-one (Compound A) and risperidone were solubilized as described above, and were administered in solution in a volume of 1.0 ml/kg body weight. Experimental Procedure: Rats were handled and habituated to the testing room before starting. […] The degree of catalepsy was measured by gently placing both forepaws over a metal bar (1.1 cm. diameter suspended 8 cm. above the table top). The time in seconds until the rat took both paws off the bar was recorded, with a maximum cut-off of 300 seconds. […] At least 5 trials were attempted on each rat with 5 seconds used as a low-end cut-off for catalepsy (time scored as zero). For catalepsy times between 5-15 seconds, the highest time of 5 trials was recorded. Alternately, any catalepsy trial time that was greater than 15 seconds (up to 300 seconds) was recorded. Statistics: Data for the 4 times points were summed across the session, and the total catalepsy scores were analyzed using a one-way analysis of variance (ANOVA). […]"}, "[4]": {"conditions": "clinical use, Table 1, hyperprolactinaemia"}, "[5]": {"conditions": "clinical use, Table 1, sexual dysfunction"}},
  "note": "Read-outs that look alike come from different tables or passages of the source.",
  "data": [
    {"smiles": "CN1CCN(C2=Nc3cc(Cl)ccc3Nc3ccccc32)CC1", "note": "[Clozapine, 8-chloro-11-(4-methyl-1-piperazinyl)-5H-dibenzo[b,e][1,4]diazepine]", "values": [
      {"measurement": "Dose of Increased Side Effect Risk (low risk for seizures)", "setting": "[1]; Table 2", "value": "<300", "unit": "mg/day"},
      {"measurement": "Dose of Increased Side Effect Risk (moderate risk for seizures)", "setting": "[1]; Table 2", "value": "300 to 599", "unit": "mg/day"}
    ]},
    {"smiles": "O=C1CCc2ccc(OCCCCN3CCN(c4cccc(Cl)c4Cl)CC3)cc2N1", "note": "[Arpiprazole]", "values": [
      {"measurement": "Dose of Increased Side Effect Risk (somnolence), in words", "setting": "[1]; Table 2", "value": "dose dependent"},
      {"measurement": "Other Dose Related Side Effects", "setting": "[1]; clinical use, Table 1", "value": "somnolence"}
    ]},
    {"smiles": "O=C(CCCN1CCC(O)(c2ccc(Cl)cc2)CC1)c1ccc(F)cc1", "note": "[Haloperidol, 4-(4-chlorophenyl)-1-[4-(4-fluorophenyl)-4-oxobutyl]-4 piperidinyl]", "values": [
      {"measurement": "Dose of Increased Side Effect Risk", "setting": "[1]; Table 2, risk for EPS", "value": "~3", "unit": "mg"},
      {"measurement": "Other Dose Related Side Effects", "setting": "[1]; [4]", "value": "hyper-"},
      {"measurement": "Other Dose Related Side Effects", "setting": "[1]; [5]", "value": "sexual"}
    ]},
    {"smiles": "O=C1Cc2cc(CCN3CCN(c4nsc5ccccc45)CC3)c(Cl)cc2N1", "note": "[Ziprasidone, 5-[2-[4-(1,2-benzoisothiazol-3-yl)-1-piperazinyl]ethyl]-6-chloro-1,3-dihydro-2H-indol-2-one]", "values": [
      {"measurement": "Dose of Increased Side Effect Risk (EPS risk)", "setting": "[1]; Table 2", "value": ">80", "unit": "mg/day"},
      {"measurement": "EPS risk: dose of augmented risk", "setting": "[1]; clinical use, Table 1", "value": "risk >80 mg/kg/day"}
    ]},
    {"smiles": "CN1C[C@H]2CCN(c3ccc(-c4ccc(-n5ncccc5=O)cc4)cc3)[C@H]2C1", "note": "[Compound A, 2-{4′-[(3aR,6aR)-5-methylhexahydropyrrolo[3,4-b]pyrrol-1(2H)-yl]-1,1′-biphenyl-4-yl}pyridazin-3(2H)-one]", "values": [
      {"measurement": "PPI responding", "setting": "Male DBA/2J mice [2]", "value": "did not significantly alter PPI responding"},
      {"measurement": "efficacy of risperidone (0.1 mg/kg) in PPI in combination with 0.1 mg/kg Compound A", "setting": "Male DBA/2J mice [3]; 0.1 mg/kg Compound A + 0.1 mg/kg risperidone, comparable to 1.0 mg/kg risperidone", "value": "attained maximal efficacy"},
      {"measurement": "efficacy of risperidone (0.1 mg/kg) in PPI in the presence of Compound A", "setting": "Male DBA/2J mice [3]; Compound A 0.01, 0.1 or 1.0 mg/kg i.p. 35 min, risperidone 0.1 mg/kg 25 min prior to testing", "value": "more efficacious"},
      {"measurement": "cataleptic behavior of risperidone when administered in combination", "setting": "Male Sprague Dawley rats", "value": "did not significantly alter cataleptic behavior"}
    ]},
    {"smiles": "Cc1nc2n(c(=O)c1CCN1CCC(c3noc4cc(F)ccc34)CC1)CCCC2", "note": "[Risperidone, 3-[2-[4-(6-fluoro-1,2-benzisoxazol-3-yl)piperidino]ethyl]-2-methyl-6,7,8,9-tetrahydro-4H-pyrido-[1,2-a]pyrimidin-4-one]", "values": [
      {"measurement": "Dose of Increased Side Effect Risk (EPS risk)", "setting": "[1]; Table 2", "value": "≧6 mg/day"},
      {"measurement": "Other Dose Related Side Effects", "setting": "[1]; [4]", "value": "hyper-"},
      {"measurement": "Other Dose Related Side Effects", "setting": "[1]; [5]", "value": "sexual"}
    ]}
  ]
}
